Like-named read-outs stand apart in the source and are kept apart here. Bounds are passed on as bounds.

Experiment [1] relates to Haemonchus contortus. Kind of experiment: Efficacy against Haemonchus contortus in jirds. It is filed as in vivo, jirds (Meriones unguiculatus). The note with it: 72 h, read-out: % Reduction in H. As to the method: Anthelmintic effects of compounds of this invention were tested in vivo using Haemonchus contuortus in jirds (Meriones unguiculatus). The jirds were orally infected with approximately 750-3,000 third-stage larvae of Haemonchus contortus. Ten days after infection, the jirds in the treatment groups were treated once orally or subcutaneously at a dose of 2, 10, and/or 50 mg per kg bodyweight. Three days after treatment, the jirds were necropsied, and the larvae burden in the stomach is determined. The efficacy is defined as the reduction of the mean larvae count in the jirds of the treatment groups in comparison to the infected jirds in the untreated negative control group.

Experiment [2] has as its system A. galli (intestinal roundworm of chicken) larval stage 3; O. dentatum (nodular worm of swine) larval stages 3 and 4. Description: Activity against Ascaridia galli and Oesophagostomum dentatum larvae in vitro (minimum effective concentration). The experiment is classed as cell-based.
[3] abbreviates: read-out: MEC (minimum effective concentration) against one or more of the tested nematodes, in vitro, one or more of A. galli L3, O. dentatum L3, L4, threshold 1 μM.
Setting [4] is: read-out: MEC (minimum effective concentration) against one or more of the tested nematodes, in vitro, one or more of A. galli L3, O. dentatum L3, L4, threshold 7 μM.
[5] abbreviates: read-out: MEC (minimum effective concentration) against two or more of the tested nematodes, in vitro, two or more of A. galli L3, O. dentatum L3, L4, threshold 1 μM.
Where [6] appears, read: jirds, 50 mg/kg, oral, single treatment, larvae burden in stomach 3 days after treatment.
[7] abbreviates: sc, jirds, 50 mg/kg, subcutaneous, single treatment, larvae burden in stomach 3 days after treatment.
[8] abbreviates: in vitro, one or more of A. galli L3, O. dentatum L3, L4, threshold 1 μM, read-out: MEC (minimum effective concentration) against one or more of the tested nematodes.

As for `CSc1ccc(NC2CCN(C(=O)CCCN3CCN(c4ccc(C(F)(F)F)cc4)CC3)CC2)cc1C(F)(F)F` [Example 5, 1-[4-(4-methylsulfanyl-3-trifluoromethyl-phenylamino)-piperidin-1-yl]-4-[4-(4-trifluoromethyl-phenyl)-piperazin-1-yl]-butan-1-one], the values for the inhibition in vivo at 50 mg/kg in experiment [1] (po) and in experiment [1] (sc) were 87% and 99%, respectively. For the same compound, the minimal effective concentration was less than 1 µM in experiment [2] (setting [3]), less than 7 µM in experiment [2] (setting [4]) and less than 1 µM in experiment [2] (setting [5]).

Consider `N#Cc1cccc(NC2CCN(C(=O)CCCN3CCN(c4ccc(C(F)(F)F)cc4)CC3)CC2)c1` [Example 7, 3-(1-{4-[4-(4-trifluoromethyl-phenyl)-piperazin-1-yl]-butyryl}-piperidin-4-ylamino)-benzonitrile], for which the inhibition in vivo at 50 mg/kg came out at 99% in experiment [1] (po) and 98% in experiment [1] (sc). Also, the minimal effective concentration in experiment [2] (setting [3]) is less than 1 µM; in experiment [2] (setting [4]), less than 7 µM; in experiment [2] (setting [5]) it was less than 1 µM.

For `O=C(COC1CCN(c2ccc(C(F)(F)F)cc2)CC1)N1CCC(Nc2ccc([N+](=O)[O-])c(C(F)(F)F)c2)CC1` [Example 12, 1-[4-(4-nitro-3-trifluoromethyl-phenylamino)-piperidin-1-yl]-2-[1-(4-trifluoromethyl-phenyl)-piperidin-4-yloxy]-ethanone], the results for the inhibition in vivo at 50 mg/kg in experiment [1] (po) and in experiment [1] (sc) were 96% and 100%, respectively. The minimal effective concentration is less than 1 µM in experiment [2] (setting [3]), less than 7 µM in experiment [2] (setting [4]) and less than 1 µM in experiment [2] (setting [5]).

As for `O=C(CCN1CCC(c2ccc(C(F)(F)F)cc2)CC1)N1CCC(Nc2ccc([N+](=O)[O-])c(C(F)(F)F)c2)CC1` [Example 14, 1-[4-(4-nitro-3-trifluoromethyl-phenylamino)-piperidin-1-yl]-3-[4-(4-trifluoromethyl-phenyl)-piperidin-1-yl]-propan-1-one], the inhibition in vivo at 50 mg/kg in experiment [1] (po) stood at 87%; in experiment [1] (sc), 99%. Moreover, the minimal effective concentration in experiment [2] (setting [3]) is less than 1 µM; in experiment [2] (setting [4]), less than 7 µM; in experiment [2] (setting [5]), less than 1 µM.

On to `O=C(CCCN1CCN(c2ccc(C(F)(F)F)cc2)CC1)N1CCC(Nc2ccc(Cl)c(SC(F)(F)F)c2)CC1` [Example 17, 1-[4-(4-chloro-3-trifluoromethylsulfanyl-phenylamino)-piperidin-1-yl]-4-[4-(4-trifluoromethyl-phenyl)-piperazin-1-yl]-butan-1-one], for which the figures for the inhibition in vivo at 50 mg/kg in experiment [1] (po) and in experiment [1] (sc) were 100% and 96%, respectively. Besides, the minimal effective concentration in experiment [2] (setting [3]) was less than 1 µM; in experiment [2] (setting [4]), less than 7 µM; in experiment [2] (setting [5]), less than 1 µM.

Turning to `Cn1nnc(-c2ccc(NC3CCN(C(=O)CCCN4CCN(c5ccc(C(F)(F)F)cc5)CC4)CC3)cc2)n1` [Example 21, 1-{4-[4-(2-methyl-1H-tetrazol-5-yl)-phenylamino]-piperidin-1-yl}-4-[4-(4-trifluoromethyl-phenyl)-piperazin-1-yl]-butan-1-one], the inhibition in vivo at 50 mg/kg in experiment [1] (po) turned out to be 95%; in experiment [1] (sc), 38%. In addition, the results for the minimal effective concentration in experiment [2] (setting [3]), in experiment [2] (setting [4]) and in experiment [2] (setting [5]) were less than 1 µM, less than 7 µM and less than 1 µM, respectively.

As for `O=C(CCN1CCN(c2ccc(OCc3ccccc3)cc2)CC1)N1CCC(Nc2ccc([N+](=O)[O-])c(C(F)(F)F)c2)CC1` [Example 23, 3-[4-(4-benzyloxy-phenyl)-piperazin-1-yl]-1-[4-(4-nitro-3-trifluoromethyl-phenylamino)-piperidin-1-yl]-propan-1-one], the inhibition in vivo at 50 mg/kg was 66% in experiment [1] (po) and 92% in experiment [1] (sc). Moreover, the minimal effective concentration in experiment [2] (setting [3]) was less than 1 µM; in experiment [2] (setting [4]), less than 7 µM; in experiment [2] (setting [5]), less than 1 µM.

As for `O=C(CCN1CCN(c2ccc(OCc3ccccc3)cc2)CC1)N1CCC(Oc2ccc([N+](=O)[O-])c(C(F)(F)F)c2)CC1` [Example 58, 3-[4-(4-benzyloxy-phenyl)-piperazin-1-yl]-1-[4-(4-nitro-3-trifluoromethyl-phenoxy)-piperidin-1-yl]-propan-1-one], the inhibition in vivo at 50 mg/kg is 0% in experiment [1] (po) and 59% in experiment [1] (sc).

Regarding `O=C(CCCN1CCN(c2ccc(C(F)(F)F)cc2)CC1)N1CCC(Nc2ccc([N+](=O)[O-])c(C(F)(F)F)c2)CC1` [Example 89, 1-[4-(4-nitro-3-trifluoromethyl-phenylamino)-piperidin-1-yl]-4-[4-(4-trifluoromethyl-phenyl)-piperazin-1-yl]-butan-1-one], the inhibition in vivo at 10 mg/kg in experiment [1] (po) is 99%; in experiment [1] (sc), 98%.

`CC(C)(C)c1ccc(N2CCN(CCCC(=O)N3CCC(Nc4ccc([N+](=O)[O-])c(C(F)(F)F)c4)CC3)CC2)cc1` [Example 90, 4-[4-(4-tert-butyl-phenyl)-piperazin-1-yl]-1-[4-(4-nitro-3-trifluoromethyl-phenylamino)-piperidin-1-yl]-butan-1-one]: the values for the inhibition in vivo at 10 mg/kg in experiment [1] (po) and in experiment [1] (sc) were 46% and 42%, respectively.

`CC(CN1CCN(c2ccc(C(F)(F)F)cc2)CC1)C(=O)N1CCC(Nc2ccc(C#N)c(C(F)(F)F)c2)CC1` (stereo not drawn) [Example 92, 4-(1-{2-methyl-3-[4-(4-trifluoromethyl-phenyl)-piperazin-1-yl]-propionyl}-piperidin-4-ylamino)-2-trifluoromethyl-benzonitrile]: the inhibition in vivo at 50 mg/kg was 100% in experiment [1] (setting [6]) and 91% in experiment [1] (setting [7]).

Consider `N#Cc1ccc(NC2CCN(C(=O)CCCN3CCN(c4ccc(C(F)(F)F)cn4)CC3)CC2)cc1C(F)(F)F` [Example 157, 2-trifluoromethyl-4-(1-{4-[4-(5-trifluoromethyl-pyridin-2-yl)-piperazin-1-yl]-butyryl}-piperidin-4-ylamino)-benzonitrile], for which the inhibition in vivo at 10 mg/kg in experiment [1] (jirds, 10 mg/kg, oral, single treatment, larvae burden in stomach 3 days after treatment) amounted to 96%; in experiment [1] (sc, jirds, 10 mg/kg, subcutaneous, single treatment, larvae burden in stomach 3 days after treatment), 93%.

On to `CCOc1cc(NC2CCN(C(=O)CCN3CCC(c4ccc(Cl)cc4)CC3)CC2)ccc1[N+](=O)[O-]` [Example 414], for which the values for the inhibition in vivo at 50 mg/kg in experiment [1] (setting [6]) and in experiment [1] (setting [7]) were 0% and 98%, respectively.

As to `CC(C)(C)c1ccc(N2CCC(OCC(=O)N3CCC(Nc4ccc([N+](=O)[O-])c(C(F)(F)F)c4)CC3)CC2)cc1` [Example 416], the results for the inhibition in vivo at 50 mg/kg in experiment [1] (setting [6]) and in experiment [1] (setting [7]) were 88% and 98%, respectively.

As for `CCCc1ccc(C2CCN(CCC(=O)N3CCC(Oc4ccc([N+](=O)[O-])c(OCC(C)C)c4)CC3)CC2)cc1` [Example 532], the inhibition in vivo at 50 mg/kg is 90% in experiment [1] (setting [6]) and 99% in experiment [1] (setting [7]).

For `CC(C)COc1cc(OC2CCN(C(=O)CCN3CCC(c4ccc(C(C)(C)C)cc4)CC3)CC2)ccc1[N+](=O)[O-]` [Example 533], the figures for the inhibition in vivo at 50 mg/kg in experiment [1] (setting [6]) and in experiment [1] (setting [7]) were 83% and 74%, respectively.

In the case of `O=C(NCC1CCN(c2ccc(C(F)(F)F)cc2)CC1)N1CCC(Nc2ccc([N+](=O)[O-])c(C(F)(F)F)c2)CC1` [Example 539], the inhibition in vivo at 50 mg/kg in experiment [1] (setting [6]) was 82%; in experiment [1] (setting [7]) it was 73%.

For the compound `CN(CC1CCN(c2ccccc2)CC1)C(=O)N1CCC(Nc2ccc([N+](=O)[O-])c(C(F)(F)F)c2)CC1` [Example 565], the inhibition in vivo at 50 mg/kg came to 70% in experiment [1] (setting [6]) and 90% in experiment [1] (setting [7]).

For the compound `Cc1ccc(N2CCC(CN(C)C(=O)N3CCC(Nc4ccc([N+](=O)[O-])c(C(F)(F)F)c4)CC3)CC2)cc1` [Example 566], the inhibition in vivo at 50 mg/kg in experiment [1] (setting [6]) was 83%; in experiment [1] (setting [7]), 93%.

`CC(CN1CCN(c2ccc(Cl)cc2)CC1)C(=O)N1CCC(Nc2ccc(C#N)c(C(F)(F)F)c2)CC1` (stereo not drawn) [Example 581]: the inhibition in vivo at 50 mg/kg in experiment [1] (po) is 68%; in experiment [1] (sc), 10%.

For `CC(C)(C)c1ccc(N2CCN(CCC(=O)N3CCCN(c4ccc(SC(F)(F)F)cc4)CC3)CC2)cc1` [Example 1019], in experiment [2] (setting [8]), the minimal effective concentration was less than 1 µM.

Turning to `COc1ccc(N2CCN(CCC(=O)N3CCCN(c4ccc(SC(F)(F)F)cc4)CC3)CC2)cc1` [Example 1020], in experiment [2] (setting [8]), the minimal effective concentration was less than 1 µM.

With `O=C(CCCN1CCN(c2ccc(C(F)(F)F)cc2)CC1)N1CCCN(c2ccc(SC(F)(F)F)cc2)CC1` [Example 1027], in experiment [2] (setting [8]), the minimal effective concentration was less than 1 µM.

With `O=C(CCCN1CCN(c2ccc(Cl)cc2)CC1)N1CCCN(c2ccc(SC(F)(F)F)cc2)CC1` [Example 1028], the minimal effective concentration in experiment [2] (setting [8]) is less than 1 µM.

For the compound `O=C(CCCN1CCN(c2ccc(C(F)(F)F)cc2)CC1)N1CCN(c2ccc(SC(F)(F)F)cc2)CC1` [Example 1033], in experiment [2] (in vitro, two or more of A. galli L3, O. dentatum L3, L4, threshold 1 μM, read-out: MEC (minimum effective concentration) against two or more of the tested nematodes), the minimal effective concentration was less than 1 µM.

Values taken from patent publication US9096524B2, “Anthelmintic agents and their use” (Intervet International B.V., priority 2009, dated 2015).
